Reference: patent publication US20050182025A1, “Amidinylphenyl compounds and their use as fungicides” (priority 2002, published 2005)

Legend:
Assay type in all cases: in vivo
Puccinia recondita = assay: Test B: preventive spray on wheat seedlings, wheat leaf rust, disease rating; details: wheat seedlings sprayed to run-off, inoculated the following day with Puccinia recondita, 24 h saturated atmosphere then 6 days at 20° C.; test concentration not given
From the text: (§1) General protocol for preparing test suspensions: Test compounds were first dissolved in acetone in an amount equal to 3% of the final volume and then suspended at the desired concentration (in ppm) in acetone and purified water (50/50 mix) containing 250 ppm of the surfactant Trem® 014 (polyhydric alcohol esters). The resulting test suspensions were then used in the following tests. Spraying a 200 ppm test suspension to the point of run-off on the test plants was the equivalent of a rate of 500 g/ha. The test suspension was sprayed to the point of run-off on wheat seedlings. The following day the seedlings were inoculated with a spore suspension of Puccinia recondita (the causal agent of wheat leaf rust) and incubated in a saturated atmosphere at 20° C. for 24 h, and then moved to a growth chamber at 20° C. for 6 days, after which disease ratings were made. Results for Tests A-C are given in Table A. In the table, a rating of 100 indicates 100% disease control and a rating of 0 indicates no disease control (relative to the controls). A dash (-) indicates no test results.

[1] = test system: Erysiphe graminis f. sp. tritici; assay: Test A: preventive spray on wheat seedlings, wheat powdery mildew, disease rating; details: wheat seedlings sprayed to run-off, inoculated the following day with Erysiphe graminis f. sp. tritici, rated after 7 days at 20° C.; test concentration not given
From the text: as §1, with “spore dust” for “spore suspension”, “of Erysiphe graminis f. sp. tritici,” for “of Puccinia recondita”, “wheat powdery mildew)” for “wheat leaf rust)”, “in” for “in a saturated atmosphere at 20° C. for 24 h, and then moved to”, “for 7” for “for 6”

Septoria nodorum = assay: Test C: preventive spray on wheat seedlings, Septoria glume blotch, disease rating; details: wheat seedlings sprayed to run-off, inoculated the following day with Septoria nodorum, 48 h saturated atmosphere then 9 days at 20° C.; test concentration not given
From the text: as §1, with “Septoria nodorum” for “Puccinia recondita”, “Septoria glume blotch)” for “wheat leaf rust)”, “48” for “24”, “9” for “6”

| Compound | Test B disease control rating (100 = 100% disease control, 0 = no disease control relative to the controls) (Puccinia recondita) | Test A disease control rating (100 = 100% disease control, 0 = no disease control relative to the controls) [1] | Test C disease control rating (100 = 100% disease control, 0 = no disease control relative to the controls) (Septoria nodorum) |
| --- | --- | --- | --- |
| Cc1cc(OCCCC(C)(C)C)c(C)cc1N=CN(C)C [Compound 50] | 67% | 99% | 100% |
| CC[Si](C)(C)CCCOc1cc(C)c(N=CN(C)C)cc1C [Compound 51] | 100% | 96% | 100% |
| CCC[Si](C)(C)CCCOc1cc(C)c(N=CN(C)C)cc1C [Compound 52] | 100% | 100% | 99% |
| CC[Si](C)(CC)CCCOc1cc(C)c(N=CN(C)C)cc1C [Compound 53] | 100% | 100% | 99% |
| Cc1cc(OCCC[Si](C)(C)C)c(Cl)cc1N=CN1CCCC1 [Compound 95] | 100% | 100% | 100% |
| CCN(C)C=Nc1cc(Cl)c(OCCC[Si](C)(C)C)cc1C [compound 54] | 100% | 100% | 100% |
| CN(C)C=Nc1cc(Cl)c(OCCC[Si](C)(C)C)c(Cl)c1Cl [compound 55] | 19% | 0% | 0% |
| C=CCN(C)C=Nc1cc(Cl)c(OCCC[Si](C)(C)C)cc1C [compound 56] | 100% | 100% | 100% |
| CCN(C)C=Nc1cc(Cl)c(OCCC[Si](C)(C)CC)cc1C [compound 57] | 100% | 100% | 100% |
| CCCN(C)C=Nc1cc(Cl)c(OCCC[Si](C)(C)C)cc1C [compound 58] | 100% | 100% | 100% |
| CCN(C)C=Nc1cc(F)c(OCCC[Si](C)(C)C)cc1C [compound 59] | 100% | 100% | 100% |
| CCCN(C)C=Nc1cc(F)c(OCCC[Si](C)(C)C)cc1C [compound 60] | 100% | 100% | 100% |
| Cc1cc(OCCC[Si](C)(C)C)c(Cl)cc1N=CN(C)C1CC1 [compound 61] | 100% | 100% | 100% |
| CCCCN(C)C=Nc1cc(F)c(OCCC[Si](C)(C)C)cc1C [compound 62] | 100% | 100% | 100% |
| Cc1cc(OCCC[Si](C)(C)C)c(F)cc1N=CN(C)C(C)C [compound 63] | 100% | 100% | 100% |
| C=CCN(C)C=Nc1cc(F)c(OCCC[Si](C)(C)C)cc1C [compound 64] | 100% | 100% | 100% |
| CC[Si](C)(C)CCCOc1cc(C)c(N=CN(C)C2CC2)cc1Cl [compound 65] | 100% | 100% | 96% |
| CCCCN(C)C=Nc1cc(C(C)C)c(OCCC[Si](C)(C)C)cc1C [compound 73] | 61% | 99% | 66% |
| Cc1cc(OCCC[Si](C)(C)C)c(C(C)C)cc1N=CN(C)C(C)C [compound 74] | 100% | 100% | 100% |
| CCCN(C)C=Nc1cc(C(C)C)c(OCCC[Si](C)(C)C)cc1C [compound 75] | 100% | 100% | 100% |
| CCN(C)C=Nc1cc(C(C)C)c(OCCC[Si](C)(C)C)cc1C [compound 76] | 100% | 100% | 100% |
| CCN(C)C(=S)Nc1cc(C)c(OCCC[Si](C)(C)CC)cc1C [compound 77] | 100% | 100% | 100% |
| CCCN(C)C(=S)Nc1cc(C)c(OCCC[Si](C)(C)CC)cc1C [compound 78] | 98% | 0% | 100% |
